What was measured:
[1] = tested on: normal NK cells expanded with K562-aAPC; assay: drug sensitivity score (DSS) (DSS units); higher = more sensitive; extreme values may be limits of the assay; details: 72 h; IL-2 2.5 ng/mL
Procedure: (§1)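 Drug sensitivity and resistance testing on K562-aAPC-expanded normal NK cells: 5 concentrations (10-fold steps over a 10,000-fold range), 72 h at 37 °C, viability by CellTiter-Glo normalised to DMSO and benzethonium chloride controls; DSS from the fitted curve.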

[2] = tested on: normal primary NK cells, pool 2 (3 donors) (IL-2 2.5 ng/mL); assay: percent inhibition of viability; higher = more inhibition; details: 72 h
[3] = tested on: normal primary NK cells, pool 3 (3 donors) (IL-2 2.5 ng/mL); assay: as above; details: 72 h
[4] = tested on: IMC-1 (IL-2 20 ng/mL); assay: as above; details: 72 h
[5] = tested on: normal NK cells expanded with K562-aAPC; assay: as above; details: 72 h, IL-2 2.5 ng/mL
Procedure: as §1

[6] = tested on: normal primary NK cells, pool 2 (3 donors) (IL-2 2.5 ng/mL); assay: drug sensitivity score (DSS) (DSS units); higher = more sensitive; extreme values may be limits of the assay; details: 72 h
[7] = tested on: normal primary NK cells, pool 3 (3 donors) (IL-2 2.5 ng/mL); assay: as above; details: 72 h
[8] = tested on: IMC-1 (IL-2 20 ng/mL); assay: as above; details: 72 h
[9] = tested on: NK-92 (IL-2 2.5 ng/mL); assay: percent inhibition of viability; higher = more inhibition; details: 72 h
[10] = tested on: KAI3 (IL-2 2.5 ng/mL); assay: as above; details: 72 h
[11] = tested on: NK-YS (IL-2 2.5 ng/mL); assay: as above; details: 72 h
[12] = tested on: KHYG-1 (IL-2 2.5 ng/mL); assay: as above; details: 72 h
[13] = tested on: normal primary NK cells, pool 1 (3 donors) (IL-2 2.5 ng/mL); assay: as above; details: 72 h
[14] = tested on: NKL (IL-2 2.5 ng/mL); assay: as above; details: 72 h
[15] = tested on: DERL-7 (IL-2 2.5 ng/mL); assay: as above; details: 72 h
[16] = tested on: YT (IL-2 2.5 ng/mL); assay: as above; details: 72 h
[17] = tested on: normal primary NK cells, pool 1 (3 donors), resting (IL-2 0 ng/mL); assay: as above; details: 72 h
[18] = tested on: SNK-6 (IL-2 2.5 ng/mL); assay: as above; details: 72 h
[19] = tested on: NK-92 (IL-2 2.5 ng/mL); assay: drug sensitivity score (DSS) (DSS units); higher = more sensitive; extreme values may be limits of the assay; details: 72 h
[20] = tested on: KAI3 (IL-2 2.5 ng/mL); assay: as above; details: 72 h
[21] = tested on: NK-YS (IL-2 2.5 ng/mL); assay: as above; details: 72 h
[22] = tested on: KHYG-1 (IL-2 2.5 ng/mL); assay: as above; details: 72 h
[23] = tested on: normal primary NK cells, pool 1 (3 donors) (IL-2 2.5 ng/mL); assay: as above; details: 72 h
[24] = tested on: NKL (IL-2 2.5 ng/mL); assay: as above; details: 72 h
[25] = tested on: DERL-7 (IL-2 2.5 ng/mL); assay: as above; details: 72 h
[26] = tested on: YT (IL-2 2.5 ng/mL); assay: as above; details: 72 h
[27] = tested on: normal primary NK cells, pool 1 (3 donors), resting (IL-2 0 ng/mL); assay: as above; details: 72 h
[28] = tested on: SNK-6 (IL-2 2.5 ng/mL); assay: as above; details: 72 h

c1cc(CN2CCCNCCNCCCNCC2)ccc1CN1CCCNCCNCCCNCC1 [Plerixafor] (max concentration tested 10000 nM)
Details | drug sensitivity score
[1] | 0
[6] | 0
[7] | 0
[8] | 0.01

percent inhibition of viability [%]
Details | 1 nM | 10 nM | 100 nM | 1000 nM | 10000 nM
[2] | -13.2 | -6.73 | -6.7 | -15 | -10.7
[3] | -11.8 | -3.1 | -2.77 | -16.3 | -17.5
[4] | -6.62 | -2.25 | -2.63 | -6.11 | 12
[5] | -8.84 | -11.8 | -6.04 | -7.74 | -11.7

N.N.[Cl][Pt][Cl] [Cisplatin] (max concentration tested 100000 nM)
Details | drug sensitivity score
[1] | 14.1
[6] | 8.93
[7] | 9.04
[8] | 27.8

percent inhibition of viability [%]
Details | 10 nM | 100 nM | 1000 nM | 10000 nM | 100000 nM
[2] | -10.5 | -3.22 | -1.72 | 25.3 | 92.7
[3] | -4.27 | 1.37 | -2.08 | 24 | 96.7
[4] | 0.88 | -0.16 | 84.2 | 100 | 100
[5] | 2.08 | 1.39 | 16.1 | 62.8 | 99.8

CCN(c1cc(-c2ccc(CN3CCOCC3)cc2)cc(C(=O)NCc2c(C)cc(C)[nH]c2=O)c1C)C1CCOCC1 [E7438] (max concentration tested 10000 nM)
percent inhibition of viability [%]
Details | [9] | [10] | [11] | [12] | [13] | [14] | [15] | [16] | [17] | [18]
1 nM | -6.98 | -4.36 | -4.53 | -5.22 | 3.3 | -13.6 | 7.34 | -6.25 | 6.57 | 1.4
10 nM | -6.59 | 3.43 | -0.35 | -1.93 | -9.28 | -3.23 | 4.06 | -2.68 | -0.47 | 5.22
100 nM | 11.7 | 0.88 | 5.89 | 0.98 | 3.33 | 3.68 | 9.96 | 0.66 | 9.19 | 2.14
1000 nM | 12.3 | -7.37 | 2.91 | 0.03 | -10.7 | 3.36 | 1.71 | -5.62 | -13.6 | 2.9
10000 nM | 18 | -7.23 | 11.4 | 4.04 | -1.96 | -3.21 | 11.7 | 0.29 | 3.73 | -16.1

Details | drug sensitivity score
[19] | 3.24
[20] | 0
[21] | 0
[22] | 0
[23] | 0
[24] | 0
[25] | 0
[26] | 0
[27] | 0
[28] | 0

CC(C)n1nc(-c2ccc3oc(N)nc3c2)c2c(N)ncnc21 [INK128] (max concentration tested 1000 nM)
percent inhibition of viability [%]
Details | [9] | [10] | [11] | [12] | [13] | [14] | [15] | [16] | [17] | [18]
0.1 nM | -2.13 | -5.24 | -11.2 | -4.72 | -6.36 | 0.39 | -4.21 | -1.84 | -19.8 | -24
1 nM | 9.63 | -1.02 | -5.11 | 1.98 | 5.5 | 1.73 | -1.17 | 1.95 | 6.92 | -3.64
10 nM | 22.5 | 24.1 | 6.74 | 3.77 | 19.8 | 38.8 | 39.4 | 15.8 | 15.4 | 15.8
100 nM | 60.8 | 54.6 | 51.9 | 33 | 31.3 | 63.9 | 76.1 | 65.5 | 17.9 | 45.9
1000 nM | 74.7 | 70.3 | 71.6 | 83.9 | 40.5 | 70.2 | 91.4 | 78 | 34.9 | 41.9

Details | drug sensitivity score
[19] | 14.1
[20] | 13.1
[21] | 10.7
[22] | 8.73
[23] | 7.91
[24] | 17.1
[25] | 19.2
[26] | 14.1
[27] | 4.47
[28] | 10.6

CCN(CC)CCCC(C)Nc1ccnc2cc(Cl)ccc12 (stereo not drawn) [Chloroquine] (max concentration tested 100000 nM)
Details | drug sensitivity score
[1] | 14.2
[6] | 9.79
[7] | 11.8
[8] | 5.31

percent inhibition of viability [%]
Details | 10 nM | 100 nM | 1000 nM | 10000 nM | 100000 nM
[2] | -5.74 | 2.44 | 3.84 | 28.9 | 101
[3] | -6.29 | 3.82 | 7.92 | 52.1 | 101
[4] | -9.53 | -2.15 | -3.29 | -3.07 | 99.8
[5] | -7.98 | -8.65 | -3.82 | 76 | 101

CCCCCCCCCCCCCCCCCCOP(=O)([O-])OC1CC[N+](C)(C)CC1 [Perifosine] (max concentration tested 2500 nM)
Details | drug sensitivity score
[1] | 0.73
[6] | 0
[7] | 0
[8] | 0.06

percent inhibition of viability [%]
Details | 0.25 nM | 2.5 nM | 25 nM | 250 nM | 2500 nM
[2] | -4.58 | -3.48 | -0.26 | 4.53 | 7.26
[3] | -6.26 | -5.2 | 0.44 | 3.24 | 9.26
[4] | -3.43 | -7.43 | 0.31 | 2.67 | 10.9
[5] | -10.4 | -4.12 | -6.08 | 9.36 | 14

CON(C)C(=O)N1N=C(c2cc(F)ccc2F)S[C@@]1(CCCN)c1ccccc1 [Filanesib] (max concentration tested 1000 nM)
Details | drug sensitivity score
[1] | 18.2
[6] | 0
[7] | 0
[8] | 30.5

percent inhibition of viability [%]
Details | 0.1 nM | 1 nM | 10 nM | 100 nM | 1000 nM
[2] | -10.4 | 4.01 | 3.31 | 2.78 | 0.91
[3] | -8.61 | 0.04 | 1.29 | 2.17 | -3.73
[4] | 0.48 | 0.61 | 99.5 | 100 | 99.5
[5] | 5.43 | 2.85 | 56.5 | 56.8 | 56.8

CC(C)n1nc(-c2ccc3oc(N)nc3c2)c2c(N)ncnc21 [MLN-0128] (max concentration tested 1000 nM)
Details | drug sensitivity score
[1] | 9.64
[6] | 8.27
[7] | 3.64
[8] | 0.2

percent inhibition of viability [%]
Details | 0.1 nM | 1 nM | 10 nM | 100 nM | 1000 nM
[2] | -8.27 | 4.32 | 23.5 | 28 | 36.7
[3] | -6.15 | 0.85 | 15.6 | 13.5 | 35.5
[4] | -2.42 | -1.34 | -16.7 | -30.3 | 19.6
[5] | -6.08 | -1.99 | 18 | 40.5 | 44.1

CON(C)C(=O)N1N=C(c2cc(F)ccc2F)S[C@@]1(CCCN)c1ccccc1 [ARRY-520] (max concentration tested 1000 nM)
percent inhibition of viability [%]
Details | [9] | [10] | [11] | [12] | [13] | [14] | [15] | [16] | [17] | [18]
0.1 nM | -13.1 | -7.27 | -0.87 | -0.04 | -14.6 | 1.77 | -10.8 | 1.27 | -28.7 | 21
1 nM | -13.4 | -8.08 | 0.68 | -0.06 | -9.86 | -1.49 | 1.72 | 1.15 | -37.1 | 12.7
10 nM | 45.1 | 45.9 | 71.2 | 98.8 | -12 | 78.1 | 98.7 | 7.04 | -37.4 | 81.8
100 nM | 92.3 | 49.6 | 77 | 107 | 2.21 | 93.3 | 100 | 65.3 | -9.59 | 88
1000 nM | 89.1 | 49.5 | 76.6 | 103 | -7.49 | 87.7 | 100 | 65.7 | -26.9 | 87.7

Details | drug sensitivity score
[19] | 22.4
[20] | 14.6
[21] | 23.1
[22] | 30.3
[23] | 0
[24] | 26
[25] | 30.5
[26] | 13.2
[27] | 0
[28] | 27.8

CCN(c1cc(-c2ccc(CN3CCOCC3)cc2)cc(C(=O)NCc2c(C)cc(C)[nH]c2=O)c1C)C1CCOCC1 [Tazemetostat] (max concentration tested 10000 nM)
Details | drug sensitivity score
[1] | 0
[6] | 0
[7] | 0
[8] | 0

percent inhibition of viability [%]
Details | 1 nM | 10 nM | 100 nM | 1000 nM | 10000 nM
[2] | -7.19 | -1.07 | 5.71 | -5.28 | 7.6
[3] | -4.31 | -2.24 | 8.29 | -7.9 | 0.75
[4] | -6.56 | 0.55 | -2.13 | 1.66 | 2.45
[5] | -1.54 | 2.17 | -0.28 | 10.4 | 0.84
